From patent US12673975B2, “Cyclic peptide, cell scaffold material, cell separating material, and medium” (FUJIFILM Corporation, priority 2019, dated 2026)
Read-outs that look alike come from different tables or passages of the source. Starred links: 1 amine or outer side, 2 acyl side, 3 side chain; linkers in the order of their positions; H or OH if unused. Positions of bridges follow the written chain, without caps; N, C: chain ends. Non-standard residues stand in square brackets, D forms with d. Residues, ends and D or L forms follow the SMILES beside them. hCys = N[C@@H](CCS)C(=O)O; Dab = NCC[C@H](N)C(=O)O; X2 = O=C(C[*:1])[*:2]

Key:
human integrin αvβ5 = human integrin αvβ5 (Homo sapiens, UniProt P06756+P18084); experiment: Evaluation of integrin binding property (surface plasmon resonance, Biacore 3000, immobilized cyclic peptide)
human integrin αvβ5, sequence (P06756 31-1048): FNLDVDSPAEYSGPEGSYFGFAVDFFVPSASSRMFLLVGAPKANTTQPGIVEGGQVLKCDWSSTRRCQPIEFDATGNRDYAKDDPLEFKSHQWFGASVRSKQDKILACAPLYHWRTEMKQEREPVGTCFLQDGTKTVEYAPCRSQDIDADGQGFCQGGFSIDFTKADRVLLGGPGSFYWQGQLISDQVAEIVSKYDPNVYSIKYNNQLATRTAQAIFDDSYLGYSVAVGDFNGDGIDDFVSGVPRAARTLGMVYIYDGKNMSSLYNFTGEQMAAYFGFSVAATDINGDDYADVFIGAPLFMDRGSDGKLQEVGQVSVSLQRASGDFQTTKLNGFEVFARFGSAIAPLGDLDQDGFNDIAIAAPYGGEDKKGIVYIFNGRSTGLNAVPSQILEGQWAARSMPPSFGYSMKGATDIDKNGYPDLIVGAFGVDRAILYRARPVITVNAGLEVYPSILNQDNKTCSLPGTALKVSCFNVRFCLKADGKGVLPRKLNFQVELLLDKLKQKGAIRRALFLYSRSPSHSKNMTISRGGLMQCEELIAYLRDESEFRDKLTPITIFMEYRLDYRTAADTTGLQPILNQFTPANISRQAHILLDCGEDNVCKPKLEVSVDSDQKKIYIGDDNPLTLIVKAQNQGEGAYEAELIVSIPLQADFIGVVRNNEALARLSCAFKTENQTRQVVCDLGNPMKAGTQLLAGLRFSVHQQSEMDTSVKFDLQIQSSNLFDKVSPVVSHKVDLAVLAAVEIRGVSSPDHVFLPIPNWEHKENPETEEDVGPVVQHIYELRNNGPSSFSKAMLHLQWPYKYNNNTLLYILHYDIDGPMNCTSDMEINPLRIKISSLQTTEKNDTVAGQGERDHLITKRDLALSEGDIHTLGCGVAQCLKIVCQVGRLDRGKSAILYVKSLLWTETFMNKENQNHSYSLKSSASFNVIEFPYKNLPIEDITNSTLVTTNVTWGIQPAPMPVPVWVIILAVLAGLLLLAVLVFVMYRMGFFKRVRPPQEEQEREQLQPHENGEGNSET
human integrin αvβ5, sequence (P18084 24-799): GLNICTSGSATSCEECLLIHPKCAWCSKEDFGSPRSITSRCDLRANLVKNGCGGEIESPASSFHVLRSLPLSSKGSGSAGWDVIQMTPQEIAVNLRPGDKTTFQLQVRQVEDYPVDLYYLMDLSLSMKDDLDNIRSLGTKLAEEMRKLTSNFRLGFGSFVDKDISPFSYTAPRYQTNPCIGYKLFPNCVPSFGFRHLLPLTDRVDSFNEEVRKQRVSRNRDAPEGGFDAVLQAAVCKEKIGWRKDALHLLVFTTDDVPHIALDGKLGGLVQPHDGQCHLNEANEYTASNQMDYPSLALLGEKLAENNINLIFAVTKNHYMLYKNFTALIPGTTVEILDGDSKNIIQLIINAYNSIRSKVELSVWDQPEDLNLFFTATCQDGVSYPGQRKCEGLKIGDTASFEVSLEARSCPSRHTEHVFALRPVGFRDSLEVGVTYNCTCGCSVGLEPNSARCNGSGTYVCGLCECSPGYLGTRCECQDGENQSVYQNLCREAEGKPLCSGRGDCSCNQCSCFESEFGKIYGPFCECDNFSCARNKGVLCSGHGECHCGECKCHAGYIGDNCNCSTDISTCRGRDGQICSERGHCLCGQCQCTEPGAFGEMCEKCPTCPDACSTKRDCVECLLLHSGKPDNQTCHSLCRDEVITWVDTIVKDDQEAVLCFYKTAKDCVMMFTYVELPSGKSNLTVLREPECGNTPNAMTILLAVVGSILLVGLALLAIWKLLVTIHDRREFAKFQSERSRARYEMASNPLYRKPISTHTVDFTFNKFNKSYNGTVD
Outline: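 Human αvβ5 (30-1,000 nM) flowed for 10 min at 25 °C over immobilized cyclic peptide in 20 mM HEPES, 150 mM NaCl, 5 mM MgCl2, pH 7.4, followed by 30 min running buffer and 0.5 M EDTA regeneration. Dissociation constant from peptide minus unimmobilized channel, scored into standard grades.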

[1] = Evaluation of molecule stability (alkali treatment, residual rate by LC/MS); format: physicochemical; settings: for Stability (molecule stability, residual rate of the cyclic peptide rank): alkali treatment, residual rate by LC/MS; for Performance evaluation: Stability (residual rate of cyclic peptide after alkali treatment): 500 μM peptide aqueous solution plus equivalent of 1 M sodium hydroxide, 15° C., 3 hours, LC/MS peak area
Outline: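 Stability read as percent of summed LC/MS peak area remaining versus untreated peptide (C18, 45 °C, 10 mM ammonium formate pH 3, ESI positive/negative). Treatment: 500 μM peptide in water plus an equivalent of 1 M NaOH, 15 °C for 3 hours.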

[2] = surface plasmon resonance, immobilized cyclic peptide, human integrin αvβ5, read-out: Binding activity (integrin binding property, dissociation constant rank)
[3] = SPR, 25° C., HEPES buffer with 5 mM magnesium chloride, integrin 30-1,000 nM, read-out: Performance evaluation: Binding activity (dissociation constant between the cyclic peptide and human integrin αvβ5)

Row | SMILES | Kd (human integrin αvβ5; [2]) [nM] | Stability (molecule stability, residual rate of the cyclic peptide rank) [1] | Kd (human integrin αvβ5; [3]) [nM] | Performance evaluation: Stability (residual rate of cyclic peptide after alkali treatment) [1] | Kd (human integrin αvβ5) [nM]
1 | C[C@@H]1NC(=O)[C@H](Cc2ccccc2)NC(=O)[C@H]([C@@H](C)O)NC(=O)[C@H](CC(=O)O)NC(=O)CNC(=O)[C@H](CCCNC(=N)N)NC(=O)[C@@H]2CCCN2C(=O)[C@H](Cc2ccc(O)cc2)NC(=O)[C@@H](NC(=O)[C@H](CCCCN)NC(=O)[C@H](CCCCN)NC(=O)[C@@H](N)CCCCN)CCSCC(=O)NCC[C@@H](C(=O)O)NC1=O [Cyclic peptide 148, KKK-(Hcy)-YPRGDTFA(Dab(acetyl))] (H-KKK[hCys]YPRGDTFA[Dab]-OH; linker 4-13 via X2) | < 50 | A (The residual rate of the cyclic peptide is 70% or more.) |  |  | 
2 | CC(C)[C@@H]1NC(=O)[C@@H](NC(=O)[C@H](CCCCN)NC(=O)[C@H](CCCCN)NC(=O)[C@@H](N)CCCCN)CCSCC(=O)NCC[C@@H](C(=O)O)NC(=O)[C@H](CO)NC(=O)[C@H](Cc2ccccc2)NC(=O)[C@H]([C@@H](C)O)NC(=O)[C@H](CC(=O)O)NC(=O)CNC(=O)[C@H](CCCNC(=N)N)NC(=O)[C@@H]2CCCN2C1=O [Cyclic peptide 153, KKK-(Hcy)-VPRGDTFS(Dab(acetyl))] (H-KKK[hCys]VPRGDTFS[Dab]-OH; linker 4-13 via X2) | < 50 | A (The residual rate of the cyclic peptide is 70% or more.) |  |  | 
3 | CC[C@H](C)[C@@H]1NC(=O)[C@@H](NC(=O)[C@H](CCCCN)NC(=O)[C@H](CCCCN)NC(=O)[C@@H](N)CCCCN)CCSCC(=O)NCC[C@@H](C(=O)N[C@@H](C)C(=O)O)NC(=O)[C@H](CCCNC(=N)N)NC(=O)[C@H](Cc2ccccc2)NC(=O)[C@H](CC(N)=O)NC(=O)[C@H](CC(=O)O)NC(=O)CNC(=O)[C@H](CCCNC(=N)N)NC(=O)[C@@H]2CCCN2C1=O [Cyclic peptide 3, KKK-(Hcy)-IPRGDNFR(Dab(acetyl))A] (H-KKK[hCys]IPRGDNFR[Dab]A-OH; linker 4-13 via X2) |  |  | < 50 | A (The residual rate of the cyclic peptide is 70% or more.) | 
4 | C[C@H](NC(=O)[C@@H]1CCNC(=O)CSCC[C@H](NC(=O)[C@H](CCCCN)NC(=O)[C@H](CCCCN)NC(=O)[C@@H](N)CCCCN)C(=O)N[C@@H](Cc2ccc(O)cc2)C(=O)N2CCC[C@H]2C(=O)N[C@@H](CCCNC(=N)N)C(=O)NCC(=O)N[C@@H](CC(=O)O)C(=O)N[C@@H](CC(N)=O)C(=O)N[C@@H](Cc2ccccc2)C(=O)N[C@@H](CCCNC(=N)N)C(=O)N1)C(=O)O [Cyclic peptide 24, KKK-(Hcy)-YPRGDNFR(Dab(acetyl))A] (H-KKK[hCys]YPRGDNFR[Dab]A-OH; linker 4-13 via X2) |  |  | < 50 | A (The residual rate of the cyclic peptide is 70% or more.) | 
5 | CC[C@H](C)[C@@H]1NC(=O)[C@@H](NC(=O)[C@H](CCCCN)NC(=O)[C@H](CCCCN)NC(=O)[C@@H](N)CCCCN)CCSCC(=O)NCC[C@@H](C(=O)N[C@@H](CC(=O)O)C(=O)O)NC(=O)[C@H](CCCNC(=N)N)NC(=O)[C@H](Cc2ccccc2)NC(=O)[C@H](CC(N)=O)NC(=O)[C@H](CC(=O)O)NC(=O)CNC(=O)[C@H](CCCNC(=N)N)NC(=O)[C@@H]2CCCN2C1=O [Cyclic peptide 5, KKK-(Hcy)-IPRGDNFR(Dab(acetyl))D] (H-KKK[hCys]IPRGDNFR[Dab]D-OH; linker 4-13 via X2) |  |  | < 50 | A (The residual rate of the cyclic peptide is 70% or more.) | 
6 | CC(C)[C@@H]1NC(=O)[C@@H](NC(=O)[C@H](CCCCN)NC(=O)[C@H](CCCCN)NC(=O)[C@@H](N)CCCCN)CCSCC(=O)NCC[C@@H](C(=O)O)NC(=O)[C@H](Cc2ccccc2)NC(=O)[C@H](CC(N)=O)NC(=O)[C@H](CC(=O)O)NC(=O)CNC(=O)[C@H](CCCNC(=N)N)NC(=O)[C@@H]2CCCN2C1=O [Cyclic peptide 14, KKK-(Hcy)-VPRGDNF(Dab(acetyl))] (H-KKK[hCys]VPRGDNF[Dab]-OH; linker 4-12 via X2) |  |  |  | A (The residual rate of the cyclic peptide is 70% or more.) | < 50
7 | CC[C@H](C)[C@@H]1NC(=O)[C@H](C)NC(=O)[C@H](C)NC(=O)[C@@H](NC(=O)[C@H](CCCCN)NC(=O)[C@H](CCCCN)NC(=O)[C@@H](N)CCCCN)CCSCC(=O)NCC[C@@H](C(=O)N[C@@H](C)C(=O)O)NC(=O)[C@H](CCCNC(=N)N)NC(=O)[C@H](Cc2ccccc2)NC(=O)[C@H](CC(N)=O)NC(=O)[C@H](CC(=O)O)NC(=O)CNC(=O)[C@H](CCCNC(=N)N)NC(=O)[C@@H]2CCCN2C1=O [Cyclic peptide 18, KKK-(Hcy)-AAIPRGDNFR(Dab(acetyl))A] (H-KKK[hCys]AAIPRGDNFR[Dab]A-OH; linker 4-15 via X2) |  |  | 50 to 100 | A (The residual rate of the cyclic peptide is 70% or more.) | 
8 | C[C@H](NC(=O)[C@H](CCCCN)NC(=O)[C@H](CCCCN)NC(=O)[C@@H](N)CCCCN)C(=O)N[C@H]1CCSCC(=O)NCC[C@@H](C(=O)N[C@@H](CC(=O)O)C(=O)O)NC(=O)[C@H](CCCNC(=N)N)NC(=O)[C@H](Cc2ccc(O)cc2)NC(=O)[C@H](CO)NC(=O)[C@H](CC(=O)O)NC(=O)CNC(=O)[C@H](CCCNC(=N)N)NC(=O)[C@@H]2CCCN2C(=O)[C@H](CCC(=O)O)NC1=O [Cyclic peptide 33, KKKA-(Hcy)-EPRGDSYR(Dab(acetyl))D] (H-KKKA[hCys]EPRGDSYR[Dab]D-OH; linker 5-14 via X2) |  |  | 100 to 200 | A (The residual rate of the cyclic peptide is 70% or more.) | 
9 | CC[C@H](C)[C@@H]1NC(=O)[C@@H](NC(=O)[C@H](CCCCN)NC(=O)[C@H](CCCCN)NC(=O)[C@@H](N)CCCCN)CCSCC(=O)NCC[C@@H](C(=O)N[C@@H](C)C(=O)O)NC(=O)[C@H](CCCNC(=N)N)NC(=O)[C@H](Cc2ccc(O)cc2)NC(=O)[C@H](CC(N)=O)NC(=O)[C@H](CC(=O)O)NC(=O)CNC(=O)[C@H](CCCNC(=N)N)NC(=O)[C@@H]2CCCN2C1=O [Cyclic peptide 26, KKK-(Hcy)-IPRGDNYR(Dab(acetyl))A] (H-KKK[hCys]IPRGDNYR[Dab]A-OH; linker 4-13 via X2) |  |  | 50 to 100 | A (The residual rate of the cyclic peptide is 70% or more.) | 
10 | C[C@H](NC(=O)[C@H](CCCCN)NC(=O)[C@H](CCCCN)NC(=O)[C@@H](N)CCCCN)C(=O)N[C@H]1CCSCC(=O)NCC[C@@H](C(=O)N[C@@H](CC(=O)O)C(=O)O)NC(=O)[C@H](CCCNC(=N)N)NC(=O)[C@H](Cc2ccc(O)cc2)NC(=O)[C@H](CC(N)=O)NC(=O)[C@H](CC(=O)O)NC(=O)CNC(=O)[C@H](CCCNC(=N)N)NC(=O)[C@@H]2CCCN2C(=O)[C@H](Cc2ccc(O)cc2)NC1=O [Cyclic peptide 32, KKKA-(Hcy)-YPRGDNYR(Dab(acetyl))D] (H-KKKA[hCys]YPRGDNYR[Dab]D-OH; linker 5-14 via X2) |  |  | < 50 | A (The residual rate of the cyclic peptide is 70% or more.) | 
